The test system of one series is KCa3.1. In words: Patch-clamp, HEK293 cells expressing hKCa3.1 (IK). The format is cell-based, human. Particulars: 1 µM TRAM-34. As to the method:
(§1) HEK293 cells stably expressing hKCa1.1 (BK, GenBank accession number: NM_002247), hKCa2.1 (SK1, NM_002248), and hKCa3.1 (IK, AH009923) or COS7 cells stably expressing hKCa2.3 (SK3, AJ251016) were generated and cultured as previously described ([Sankaranarayanan et al., 2009]). HEK293 cells stably expressing rKCa2.2 (SK2, NM_019314) were a gift from Dr. Mio Zhang (Chapman University, Irvine).
(§2) All experiments were conducted with an EPC-10 amplifier (HEKA) in the whole-cell configuration with a holding potential of –80 mV. Pipette resistances averaged around 2.5 MΩ. […] Free Ca^2+ concentrations were calculated with MaxChelator (developed by Chris Patton, Stanford University) assuming a temperature of 25°C, pH 7.2, and ionic strength of 160 mM. […] Please note that the provided concentrations are what was weighed in to achieve an initially hyperosmolar solution that was diluted with water to 310 mOsm for the internal and 315 mOsm for the external solution as measured with a VAPRO Vapor pressure osmometer (Wescor). […]
(§3) KCa2 and KCa3.1 currents were elicited by 200-ms voltage ramps from –120 to 40 mV applied every 10 s, and the fold decrease of slope conductance at –80 mV was taken as a measure of apamin-induced channel inhibition. […] KCa1.1 channel activity was recorded with a step protocol, in which cells were stepped to +40 mV for 100 ms at 30-s intervals. […]
On the technique in general: Patch clamp records ionic current or voltage across a cell membrane.

The next series has as its system KCa2.2. Particulars: cited from earlier work. The source says:
(§4) According to the Kalium database (https://kaliumdb.org) ([Kuzmenkov et al., 2016]; [Tabakmakher et al., 2019]), six of these substances were identified in scorpion venom (AmP05, maurotoxin, Pi-1, scyllatoxin, tamapin, and Ts9). […] Intere ...

Another series deals with KCa2. Particulars: Kalium database; ref Kuzmenkov et al., 2016; Tabakmakher et al., 2019; cited from earlier work.
Description: as §4

Another series addresses T1, KCa2.1 (Homo sapiens, UniProt Q92952).
T1 construct: expressed in transfected cells
In words: Patch-clamp, HEK293 cells expressing hKCa2.1 (SK1). The class given is cell-based. Particulars: voltage ramps –120 to 40 mV, slope conductance at –80 mV, 1 μM free Ca^2+ internal; Hill fit, n ≥ 5; 95% CI 3.3–5.0 nM. The procedure:
as §1, §2, §3

For a further series, the system named is KV11.1. The experiment in a line: Two-electrode voltage-clamp, X. laevis oocytes, hKV11.1 (hERG). The class given is cell-based, human. On the set-up: key to effect on current: N.E.: no effect at 5 μM concentration. Particulars: 5 μM apamin, n = 5. The procedure: Linearized plasmids bearing the ion channel genes were transcribed using the mMESSAGE mMACHINE SP6 or T7 transcription kits (Ambion) to prepare the respective cRNA. The harvesting of stage V–VI oocytes from anaesthetized female X. laevis frogs was described previously ([Liman et al., 1992]; [Peigneur et al., 2021]). Oocytes were injected with 50 nL of cRNA at a concentration of 1 ng nl^−1 using a microinjector (Drummond Scientific). The oocytes were incubated at 16°C in ND96 solution containing (in mM): NaCl, 96; KCl, 2; CaCl2, 1.8; MgCl2, 2; and HEPES, 5 (pH 7.4), supplemented with 50 mg l^−1 gentamicin sulfate.
Recordings were performed at room temperature (18°C–22°C) using a Geneclamp 500 amplifier (Molecular Devices) controlled by a pClamp data acquisition system (Axon Instruments). Whole-cell currents from oocytes were recorded 1–4 days after cRNA injection. Bath solution composition was ND96, or HK containing (in mM): NaCl, 2; KCl, 96; CaCl2, 1.8; MgCl2, 2; and HEPES, 5 (pH 7.4). Voltage and current electrodes were filled with 3 M KCl. […]
Currents were evoked by a 100 ms (NaV) or 500 ms (KV) depolarization to the voltage corresponding to the maximal activation of the channels in control conditions from a holding potential of −90 mV. […] TRP currents were measured in ND96 at −90 mV during 400 s. […] Peak current amplitude was measured prior to and following the application of the peptide. […]

In another series the test system is mice. Particulars: cited from earlier work. An excerpt:
The symptoms are apparently of central origin because the toxicity increases by a factor of 1,000–10,000 and the progression of poisoning is faster in case of i.c.v. injection, but the clinical picture stays the same ([Habermann, 1977], [Habermann, 1984]).

The test system of a further series is E. faecalis. In words: Antimicrobial assay, microtitre broth dilution, E. faecalis. The format is cell-based, Enterococcus faecalis ATCC 29212. Particulars: lowest concentration causing 100% growth inhibition; 24 h, 37°C; n = 5. The procedure:
Apamin was tested against Gram-positive (Enterococcus faecalis ATCC 29212, Staphylococcus aureus subsp. aureus ATCC 29213) and Gram-negative bacteria (Escherichia coli ATCC 25922, Pseudomonas aeruginosa ATCC 27853) following the previously described modification of the microtitre broth dilution method ([Vassilevski et al., 2010]). Those bacterial strains were also subjected to the treatment by melittin in the same concentration range to serve as a positive control.
Briefly, bacteria were cultured in a low-salt LB medium. The two-fold microtitre broth dilution assay was carried out in 96-well sterile plates in a final volume of 100 μL. Mid-exponential-phase cultures were diluted to a final concentration of 10^5 colony-forming units·ml^−1. Pure peptides were dissolved in 10 μL of water and added to 90 μL of the bacterial dilution. The samples, a non-treated control and a sterility control were tested in five independent experiments (n = 5). The microtitre plates were incubated for 24 h at 37°C, and growth inhibition was determined by measuring the absorbance at 620 nm. Minimum inhibitory concentration (MIC) is expressed as the lowest concentration of peptide that caused 100% bacterial growth inhibition.

Values after ≈ are worked out from the molar mass of the structure shown. Where two headings read alike, the source gives them in different places.

What is called IC50 is the concentration that gives 50% inhibition. What is called MIC is the lowest concentration found to suppress growth.

T1 sequence (Q92952 whole entry): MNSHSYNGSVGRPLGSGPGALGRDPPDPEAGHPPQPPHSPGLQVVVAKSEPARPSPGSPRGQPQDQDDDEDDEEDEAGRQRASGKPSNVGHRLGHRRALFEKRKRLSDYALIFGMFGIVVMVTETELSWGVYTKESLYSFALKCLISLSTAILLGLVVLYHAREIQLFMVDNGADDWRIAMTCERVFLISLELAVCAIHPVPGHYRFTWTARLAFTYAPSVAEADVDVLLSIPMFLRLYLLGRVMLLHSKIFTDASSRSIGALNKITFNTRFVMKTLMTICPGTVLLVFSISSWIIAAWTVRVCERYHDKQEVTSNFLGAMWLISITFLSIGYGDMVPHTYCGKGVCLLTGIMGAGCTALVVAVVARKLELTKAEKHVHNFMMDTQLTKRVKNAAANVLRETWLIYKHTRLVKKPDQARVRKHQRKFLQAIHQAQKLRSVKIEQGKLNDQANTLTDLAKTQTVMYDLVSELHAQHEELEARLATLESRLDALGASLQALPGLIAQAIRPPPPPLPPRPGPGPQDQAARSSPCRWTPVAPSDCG

As to `Clc1ccccc1C(c1ccccc1)(c1ccccc1)n1cccn1` [TRAM-34], the “block of KCa3.1 currents” value with KCa3.1 is “potently blocked”.

As for “tamapin: scorpion toxin from Mesobuthus tamulus (AFCNLRRCELSCRSLGLLGKCIGEECKCVPY; UniProt P59869 1-31, looked up)”, in the series with KCa2.2 (ref Pedarzani et al., 2002), the “IC50 range in words” value is given as “subnanomolar range”. The “affinity on KCa2” value with KCa2 is given as “high (nanomolar) affinity”.

Regarding “scyllatoxin: scorpion toxin from Leiurus quinquestriatus hebraeus (AFCNLRMCQLSCRSLGLLGKCIGDKCECVKH; UniProt P16341 1-31, looked up)”, the “IC50 range in words” value in the series with KCa2.2 (ref Shakkottai et al., 2001) was “subnanomolar range”. The “affinity on KCa2” value in the series on KCa2 is given as “high (nanomolar) affinity”.

As to “maurotoxin (VSCTGSKDCYAPCRKQTGCPNAKCINKSCKCYGC; UniProt P80719 1-34, looked up)”, in the series with KCa2, the “affinity on KCa2” value is “high (nanomolar) affinity”.

Turning to `CC(C)C[C@@H]1NC(=O)[C@H](C)NC(=O)[C@H]([C@@H](C)O)NC(=O)[C@H](CCC(=O)O)NC(=O)[C@@H]2CCCN2C(=O)[C@H](C)NC(=O)[C@H](CCCCN)NC(=O)[C@@H]2CSSC[C@@H](C(=O)N[C@@H](CCC(N)=O)C(=O)N[C@@H](CCC(N)=O)C(=O)N[C@@H](Cc3cnc[nH]3)C(N)=O)NC(=O)[C@H](CCCNC(=N)N)NC(=O)[C@H](CCCNC(=N)N)NC(=O)[C@H](C)NC(=O)[C@H](CSSC[C@H](N)C(=O)N[C@@H](CC(N)=O)C(=O)N2)NC1=O` [apamin], on KCa2.1, it took 4.1 nM to reach half-maximal inhibition (IC50). Besides, in the series with KV11.1 (mean ± SD), the “current ratio (Iapamin/Icontrol)” value is given as 1.07 ± 0.06. Moreover, the effect on current entry with KV11.1 is “N.E”. In the series on mice (i.c.v. compared with i.v., ref Habermann, 1977, 1984), the “factor of toxicity increase on i.c.v. injection” value was 1,000–10,000. For the same molecule, the LD50 entry with mice (i.v., ref Habermann and Reiz, 1965, 1972) is “≈ 4 mg kg^−1”. Also, in the series with mice (ref Habermann and Reiz, 1965, 1972), the “symptoms when injected into mice” value was “muscle spasms, jerks, and convulsions”.

Consider `CC[C@H](C)[C@H](NC(=O)CN)C(=O)NCC(=O)N[C@@H](C)C(=O)N[C@H](C(=O)N[C@@H](CC(C)C)C(=O)N[C@@H](CCCCN)C(=O)N[C@H](C(=O)N[C@@H](CC(C)C)C(=O)N[C@H](C(=O)N[C@H](C(=O)NCC(=O)N[C@@H](CC(C)C)C(=O)N1CCC[C@H]1C(=O)N[C@@H](C)C(=O)N[C@@H](CC(C)C)C(=O)N[C@H](C(=O)N[C@@H](CO)C(=O)N[C@@H](Cc1c[nH]c2ccccc12)C(=O)N[C@H](C(=O)N[C@@H](CCCCN)C(=O)N[C@@H](CCCNC(=N)N)C(=O)N[C@@H](CCCCN)C(=O)N[C@@H](CCCNC(=N)N)C(=O)N[C@@H](CCC(N)=O)C(=O)N[C@@H](CCC(N)=O)C(N)=O)[C@@H](C)CC)[C@@H](C)CC)[C@@H](C)O)[C@@H](C)O)C(C)C)C(C)C` [Melittin], for which the MIC against E. faecalis was 0.5 µM (≈ 1.42 µg/mL).

These data come from publication PMC9523135, “Apamin structure and pharmacology revisited” (Frontiers in Pharmacology, 2022).
